{"source": "patent US20250327028A1", "about": "“ENGINEERED PLATELETS AS TARGETED PROTEIN DEGRADERS” (Wisconsin Alumni Research Foundation, priority 2024, published 2025)", "key": {"4T1-Luc tumors [1]": {"tested_on": "4T1-Luc tumors", "experiment": "Flow cytometry and ELISA of infiltrated effector T cells and cytokines within tumor tissues of post-surgery mice", "format": "in vivo, BALB/c mice", "details": "flow cytometry, two weeks after last treatment", "experimental": "Flow cytometry analysis and ELISA assay were adopted to study the infiltrated effector T cells and immune-associated cytokines within the tumor tissues. The same post-surgery mouse models were established and randomly divided into 4 groups (n=5), which were i.v. injected with PBS, nPLT (2×10^8 platelets), eDePLT (2×10^8 platelets), and free eHAC (5 mg/kg) every three days for four times starting from day 1 post-surgery. After 2 weeks of the last treatment, the tumor tissues were isolated, weighed, and cut into small pieces, which were then soaked in 2 mL blank medium containing collagenase (MilliporeSigma/C5138) and incubated at 37° C. for 1 h. The cell suspensions were centrifugated at 1200 rpm for 3 min, and 200 μL of the corresponding supernatants were collected and subjected to ELISA analysis for IFN-γ and TNF-α. The single cell suspensions were collected through filtration of the suspension over 40 µm nylon cell strainer (Falcon®/352340). For the staining, 1×10^6 cells for each sample were collected and incubated with 100 μL of PBS containing PE anti-mouse CD3 antibody and APC anti-mouse CD8a antibody in the dark for 30 min at 4° C. Then, the samples were centrifuged at 2,000 rpm for 5 min at room temperature. The pellets were resuspended in PBS and subjected to the flow cytometry analysis."}, "PD-L1 [2]": {"target": "T1, PD-L1 (Mus musculus, UniProt Q9EP73)", "T1 construct": "endogenous in cells; host or cells: 4T1", "T1 sequence (Q9EP73 19-290)": "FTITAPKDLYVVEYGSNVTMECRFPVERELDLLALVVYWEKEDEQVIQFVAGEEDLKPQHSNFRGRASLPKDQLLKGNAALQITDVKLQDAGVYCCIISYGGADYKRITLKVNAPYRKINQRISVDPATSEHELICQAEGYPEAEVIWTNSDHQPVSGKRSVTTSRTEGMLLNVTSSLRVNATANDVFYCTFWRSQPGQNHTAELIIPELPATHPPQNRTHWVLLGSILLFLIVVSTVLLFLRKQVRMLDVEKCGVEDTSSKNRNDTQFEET", "experiment": "Immunoblot analysis of PD-L1 expression in LRP-1-deficient PEA-10 cells", "format": "cell-based, murine", "details": "PEA-10 (LRP-1-deficient), various concentrations, 8 h, CM", "from_the_text": "(§1) Immunoblot analysis: Immunoblot analysis was used to evaluate the expression of BRD4, HSP90, HSP90a, and PD-L1 in 4T1, WT MDA-MB-231, HSP90α-KO MDA-MB-231 or PEA-10 cells after various treatments and also served as the detection method for IP or co-IP experiments. The procedures for preparing IP or co-IP samples were indicated in the relevant experimental parts.\n(§2) Sample preparation for various cancer cells after free HAC treatment: Various cells, including 4T1, WT MDA-MB-231, HSP90α-KO MDA-MB-231, or PEA-10 cells, were seeded in 6-well culture plates with a density of 5×10^4 cells in each well and cultured for 24 h. Then, if HAI pretreatment was performed, the cells were incubated in the HAI-containing blank medium at different concentrations for 2 h and washed with PBS twice before the following treatments. […]\n(§3) General procedures for immunoblot analysis: After a 30-min lysis, the lysates were centrifuged at 10,000 g for 10 minutes at 4° C., and the corresponding supernatants were collected, followed by quantification of the total proteins in the supernatant through the BCA assay. […] Finally, the bands were treated with electrochemiluminescence (ECL) western blot substrate, detected by the iBright™ imaging system and quantified with ImageJ software. […]"}, "PD-L1 [3]": {"target": "T2, PD-L1 (Homo sapiens, UniProt Q9NZQ7)", "T2 construct": "endogenous in cells; host or cells: HSP90α-KO MDA-MB-231", "T2 sequence (Q9NZQ7 19-290)": "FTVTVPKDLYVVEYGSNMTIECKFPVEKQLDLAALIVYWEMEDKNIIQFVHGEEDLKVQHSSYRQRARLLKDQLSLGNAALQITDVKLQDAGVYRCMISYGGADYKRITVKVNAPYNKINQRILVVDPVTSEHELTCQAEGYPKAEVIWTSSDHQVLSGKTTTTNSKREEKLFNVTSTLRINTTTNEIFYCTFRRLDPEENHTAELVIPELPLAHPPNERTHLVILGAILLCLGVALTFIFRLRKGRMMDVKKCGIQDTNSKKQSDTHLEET", "experiment": "PD-L1 degradation in HSP90α-KO MDA-MB-231 cells", "format": "cell-based", "from_the_text": "as §1, §2, §3"}, "4T1-Luc tumors [4]": {"tested_on": "4T1-Luc tumors", "experiment": "Treatment efficacy in post-surgery BALB/c mice with orthotopic 4T1-Luc breast cancer", "format": "in vivo", "details": "2×10^8 platelets i.v. or free HAC 5 mg/kg i.p., every third day for 4 times", "from_the_text": "Evaluation of treatment efficacy and biosafety in post-surgical 4T1 tumor-bearing mice: Post-surgery BALB/c mice with orthotopic 4T1-Luc-breast cancer were used to evaluate the tumor recurrence, metastasis, and biosafety profiles after iDePLT or eDePLT treatments. The treatment efficacy of iDePLT was also studied in the post-surgery NSG mice with orthotopic patient-derived xenografts (PDX) breast cancer.\nEstablishment of post-surgery models with BALB/c mice: 1×10^6 4T1-Luc cells were suspended in a PBS containing 50% Matrigel® (Corning®/354234). Female 8-week-old BALB/c mice were anesthetized and injected with 50 μL of the cell suspensions into the fourth mammary gland fat pads. After the tumor volumes reached about 100-200 mm^3, the tumor-bearing mice were anesthetized and placed under the microscope, followed by surgical resection to totally remove the visible tumor tissues. Following wound closure, the post-surgery mice were randomly assigned to different treatment groups.\nEvaluation of treatment efficacy and biosafety in post-surgery BALB/c mice: As for the treatments with platelets, the platelets were freshly isolated from the healthy female BALB/c mice and suspended in PBS for intravenous (i.v.) injection after the necessary engineering. The free iHAC and eHAC were intraperitoneally (i.p.) injected after dispersing in the formulation of 10% DMSO, 40% polyethylene glycol 300 (PEG300), 5% Tween TM-80, and 45% saline. From the same day after surgery, the mice were anesthetized and i.p. injected with D-luciferin potassium salt (150 mg/kg) in 100 μL in PBS. The bioluminescence of post-surgery mice in each group was detected by Perkin Elmer IVIS every five days from the day of surgery, and intensity was analyzed by Living Image Software v.4.3.1. […] During the treatment course, the body weight of each post-surgery mouse was monitored daily. […]"}, "PD-L1 [5]": {"target": "T2, PD-L1", "experiment": "PD-L1 distribution in WT MDA-MB-231 cells (fluorescence observation)", "format": "cell-based", "details": "2 h, compared to PU-H71 plus BMS-1166", "experimental": "PD-L1 distribution in WT MDA-MB-231 cells: 5×10^4 WT MDA-MB-231 cells were seeded in a confocal dish and cultured for 24 h at 37° C. Then, the cells were treated with eHAC or the combination of PU-H71 plus BMS-1166 at 0.5 μM for 2 h. Subsequently, the cells were washed with PBS twice and fixed with 4% PFA at room temperature for 20 min. The following procedures were the same as the above colocalization observation except for replacing the anti-LAMP1 antibody with rabbit anti-PD-L1 antibody (Invitrogen/PA5-20343)."}, "PD-L1 [6]": {"target": "T1, PD-L1", "experiment": "Immunoblot analysis of PD-L1 degradation in 4T1 cells after free HAC treatment", "format": "cell-based, murine", "from_the_text": "as §1\nSample preparation for various cancer cells after free HAC treatment: Various cells, including 4T1, WT MDA-MB-231, HSP90α-KO MDA-MB-231, or PEA-10 cells, were seeded in 6-well culture plates with a density of 5×10^4 cells in each well and cultured for 24 h. Then, if HAI pretreatment was performed, the cells were incubated in the HAI-containing blank medium at different concentrations for 2 h and washed with PBS twice before the following treatments. The medium in the corresponding wells was replaced with 1 mL of blank medium containing the DMSO vehicle, HACs, or the combinations of various free ligands at the predetermined concentrations. After incubation for the indicated time points, cells were washed with PBS and lysed on ice with the relevant lysis buffer containing PMSF (1 mM) and the phosphatase inhibitor cocktail for 30 min. As for the conditioned medium (CM), the culturing complete medium of the corresponding cancer cells in each well was collected after 24-h incubation and subjected to centrifugation at 2000 rpm for 5 min to obtain the supernatant. The filtrate of the supernatants was collected following filtration over a 0.45 μm filter, serving as the CM. Regarding the cell samples for BRD4 detection, the lysis buffer containing HEPES-KOH (pH=7.5, 10 mM), NaCl (500 mM), EDTA (5 mM), NP-40 (1%), and SDS (0.1%) was used with the indicated PMSF and phosphatase inhibitor cocktail. As for PD-L1 detection, RIPA buffer (Thermo Fisher Scientific/J63306.AP) was used with the indicated PMSF and phosphatase inhibitor cocktail.\nas §3, with “assay. Afterward, the proteins in the supernatant were mixed with the loading buffer and heated at 95° C. for 15 min. Equal amounts of proteins from different samples ([…]) were loaded into the Bis-Tris gel formulated with Bis-Tis buffer, 30% acrylamide/Bis, 10% ammonium persulfate (APS) solution, and TEMED.” for “assay.”"}}, "data": [{"smiles": "Cc1c(COc2cc(OCc3cccc(C#N)c3)c(CN3C[C@H](O)C[C@@H]3C(=O)NCCOCc3cn(CCCC(=O)N(CC#N)S(=O)(=O)c4ccc(C(=O)NCCCn5c(Sc6cc7c(cc6I)OCO7)nc6c(N)ncnc65)cc4)nn3)cc2Cl)cccc1-c1ccc2c(c1)OCCO2", "note": "[eHAC, (2R,4R)—N-(2-((1-(4-((4-((3-(6-amino-8-((6-iodobenzo[d][1,3]dioxol-5-yl)thio)-9H-purin-9-yl)propyl)carbamoyl)-N-(cyanomethyl)phenyl)sulfonamido)-4-oxobutyl)-1H-1,2,3-triazol-4-yl)methoxy)ethyl)-1-(5-chloro-2-((3-cyanobenzyl)oxy)-4-((3-(2,3-dihydrobenzo[b][1,4]dioxin-6-yl)-2-methylbenzyl)oxy)benzyl)-4-hydroxypyrrolidine-2-carboxamide]", "values": [{"measurement": "infiltration / ratio of CD3+CD8+ T cells in tumor tissues", "setting": "4T1-Luc tumors [1]", "value": "slightly elevated the ratio of CD3^+CD8^+ T cells"}, {"measurement": "PD-L1 degradation", "setting": "PD-L1 [2]", "value": "failed to induce obvious PD-L1 degradation"}, {"measurement": "PD-L1 degradation potency", "setting": "PD-L1 [3]", "value": "considerably compromised"}, {"measurement": "tumor recurrence at the surgical site (bioluminescence)", "setting": "4T1-Luc tumors [4]", "value": "same severe relapse"}, {"measurement": "PD-L1 distribution", "setting": "PD-L1 [5]", "value": "rapidly aggregated into punctate structures and moved towards cytosol"}, {"measurement": "PD-L1 expression in presence of lysosome degradation inhibitor leupeptin", "setting": "PD-L1 [6]; 4T1 cells, 5 μM, 8 h", "value": "rescue effect on PD-L1 expression"}, {"measurement": "PD-L1 expression, eHAC dispersed in blank medium (BM)", "setting": "PD-L1 [6]; 4T1 cells, blank medium", "value": "just slightly reduced the PD-L1 expression within 12 h"}, {"measurement": "PD-L1 levels, eHAC suspended in conditioned medium (CM)", "setting": "PD-L1 [6]; 4T1 cells, conditioned medium, same time points", "value": "could efficiently downregulate PD-L1 levels"}, {"measurement": "time and concentration dependence of PD-L1 reduction", "setting": "PD-L1 [6]; conditioned medium", "value": "in a time- and concentration-dependent manner"}]}]}
